Assay results reported in article PMC6910946, “Multiple roles of Bet v 1 ligands in allergen stabilization and modulation of endosomal protease activity” (Allergy, 2019).

How the values were obtained:
[1] = molecular target: T1, Bet_v_1 (endolysosomal proteases of microsomes) (Betula pendula, UniProt P15494); assay: In vitro simulation of endolysosomal degradation of Bet v 1 with microsomes; assay type: biochemical; details: for accumulation of N‐terminal cluster peptides during Bet v 1 processing / generation of the immunodominant T‐cell epitope (number of identified peptides): 12 h degradation; for proteolytic stability of Bet v 1 toward endolysosomal proteases: ligand in 10× molar excess, 0-48 h, densitometric analysis of SDS‐PAGE
T1 construct: made in house
T1 sequence (P15494 1-160): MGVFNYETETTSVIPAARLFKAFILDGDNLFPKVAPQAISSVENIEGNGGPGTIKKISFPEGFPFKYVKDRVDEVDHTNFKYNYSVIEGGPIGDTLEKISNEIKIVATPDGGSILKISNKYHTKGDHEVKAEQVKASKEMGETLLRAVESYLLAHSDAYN
Description: (§1) The endolysosomal degradation assay was performed with ligand‐bound (either DOC, PPE1, or Q3OS in 10× molar excess) and Bet_v_1 without ligands (apo‐Bet_v_1) as previously described.21 Recombinant human cathepsin S and human legumain were used in proteolytic degradation assays. Experimental details are described in the Appendix [Link], [Link].
The endolysosomal degradation assay was performed with ligand-bound (either DOC, PPE1, or Q3OS in 10× molar excess) and Bet v 1 without ligands (apo-Bet v 1) as previously described.^7 The protein (5 µg) was incubated with 7 µg of microsomes in 100 mM citrate buffer pH 4.8 and 2 mM dithiothreitol (DTT) for 0, 0.5, 1, 3, 6, 12, 24, and 48 h at 37°C. The different digestion preparations were analyzed by SDS-PAGE and quantitatively interpreted using Image Lab 4.0.1 Software (Bio-Rad). The generated peptides obtained after 12 h of digestion were analyzed using mass spectrometry with a Q-Exactive Orbitrap Mass Spectrometer (Thermo Fisher Scientific, Waltham, MA, USA), nanoelectrospray, and nano-HPLC (Dionex Ultimate 3000, Thermo Fisher Scientific).
For data analysis, the web-based application MSTools was used.^8 For the semi-quantitative analysis of the abundance of the generated peptides at 12 hours of degradation, the obtained peptide sequences were clustered into 7 groups according to their amino acid sequence (cluster 1, GVF-NYE-TET-TSV-IPA-ARL-FKA-F; cluster 2, AIL-DGD-NLF-PKV-APQ-A; cluster 3, AIS-SVE-NIE-GNG-GPG-TIK-KIS-FPE-G; cluster 4, FPF-KYV-KDR-VDE-VDH-TNF-K; cluster 5, YNY-SVI-EGG-PIG-DTL-EKI-SNE-IKI-VAT-PDG-GSI-LK; cluster 6, ISN-KYH-TKG-DHE-VKA-EQV-KAS-KEM-GET-LLR; and cluster 7, RAV-ESY-LLA-HSD-AYN), and the total sum of peak areas of all sequences per cluster was calculated (in percentage).

[2] = molecular target: T2, Bet v 1 / human legumain (Betula pendula, UniProt P15494); assay: Bet v 1 in vitro proteolytic degradation assay with legumain; assay type: biochemical
T2 construct: made in house
T2 sequence (P15494 2-160 limits assumed): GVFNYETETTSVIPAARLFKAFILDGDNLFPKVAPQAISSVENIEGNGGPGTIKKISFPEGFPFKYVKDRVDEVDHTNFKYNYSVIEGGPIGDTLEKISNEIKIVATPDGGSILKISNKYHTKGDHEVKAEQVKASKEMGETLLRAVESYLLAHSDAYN
Description: as §1
(§2) Recombinant human cathepsin S and human legumain were heterologously expressed and purified as described previously.^9,10 Bet v 1 (20 µM) was incubated with ligand (100 µM) in digestion buffer (0.1 M sodium acetate, pH 5.0, 0.1 M sodium chloride, 5 mM EDTA, and 2 mM DTT) at room temperature prior to the addition of cathepsin S (1 µM) or legumain (2 µM). […] At each time point, the reaction was halted by the addition of E64 (for cathepsin S) or YVAD-CMK (for legumain) at a final concentration of 50 µM, and analyzed by SDS-PAGE. Control reactions without the addition of protease were performed. The generated peptides were analyzed using mass spectrometry.

[3] = molecular target: T3, Bet v 1 / human cathepsin S (Betula pendula, UniProt P15494); assay: Bet v 1 in vitro proteolytic degradation assay with cathepsin S; assay type: biochemical; details: for processing (degradation) of Bet v 1 by cathepsin S: Bet v 1 20 µM, ligand 100 µM, cathepsin S 1 µM, pH 5.0, 0-24 h, SDS-PAGE
T3 construct: made in house
T3 sequence (P15494 2-160 limits assumed): T2 sequence (P15494 2-160 limits assumed)
Description: as §1, §2

[4] = molecular target: T4, legumain (Homo sapiens, UniProt Q99538); assay: Enzymatic activity assay, fluorogenic substrate Z-AAN-AMC; assay type: biochemical; details: PPE1 5 µmol/L (Figure 4D)
T4 construct: made in house
T4 sequence (Q99538 18-433): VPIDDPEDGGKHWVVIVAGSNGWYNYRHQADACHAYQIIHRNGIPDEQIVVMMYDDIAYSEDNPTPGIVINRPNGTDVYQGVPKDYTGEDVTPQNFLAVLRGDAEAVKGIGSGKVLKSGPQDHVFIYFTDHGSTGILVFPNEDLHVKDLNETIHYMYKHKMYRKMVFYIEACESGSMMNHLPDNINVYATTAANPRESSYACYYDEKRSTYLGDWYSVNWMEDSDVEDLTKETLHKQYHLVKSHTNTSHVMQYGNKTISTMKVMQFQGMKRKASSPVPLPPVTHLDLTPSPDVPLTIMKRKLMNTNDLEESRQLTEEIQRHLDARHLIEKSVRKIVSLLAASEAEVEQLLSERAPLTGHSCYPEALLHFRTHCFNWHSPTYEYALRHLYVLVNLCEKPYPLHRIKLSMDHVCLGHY
Description: To evaluate the influence of Bet_v_1 ligands on cathepsin S and legumain activities, 10 nmol/L of protease was incubated with 100 µmol/L of ligand (unless otherwise stated) and 50 µmol/L of fluorogenic substrate in digestion buffer (0.1 mol/L sodium acetate pH 5.0, 0.1 mol/L sodium chloride, 5 mmol/L EDTA, and 2 mmol/L DTT), as described in the Appendix [Link], [Link]. The effect of birch pollen extract (BPE) (20‐200 µg/mL) on the cathepsin S and legumain activities was assessed in parallel. The inhibitory effect of PPE1 was assessed by replacing DTT with 0.5 mmol/L TCEP. Activities of recombinant rat cathepsin B (provided by Dr Lukas Mach) and papain (Merck) at 10 nmol/L were assayed using Z‐FR‐AMC (Bachem) as a fluorogenic substrate.
For the detection of cathepsin or legumain activities in the microsomal fraction, 8 µg of microsomal extract was incubated with 50 µM fluorogenic substrate with or without inhibitor in assay buffer (100 mM citrate pH 4.8 and 2 mM DTT). The enzymatic reactions were carried out in a 50 µL reaction volume in a 96-half-well black flat bottom assay plate (Corning Inc., Corning, NY, USA) at 37°C. The fluorescence signal was recorded using a Tecan Infinite-200 plate reader (Tecan, Männedorf, Switzerland) at an excitation wavelength of 380 nm and emission wavelength of 460 nm for 15 min of continuous measurement with a 30-s interval reading. […]

[5] = system: LPS‐stimulated human DCs; parameters: method as in PMID 19454659, PMID 17451798; details: cited from earlier work
[6] = 12 h incubation, mass spectrometry
[7] = relative abundance of peptides by mass spectrometry

Row | SMILES | accumulation of N‐terminal cluster peptides during Bet v 1 processing [1] | generation of the immunodominant T‐cell epitope (number of identified peptides) [1] | Bet v 1 peptide diversity reduced to (versus apo form) [1, 6] [%] | proteolytic stability of Bet v 1 toward endolysosomal proteases [1] | processing (degradation) of Bet v 1 by legumain ([2]; Bet v 1 20 µM, ligand 100 µM, legumain 2 µM, pH 5.0, 0-24 h, SDS-PAGE) | processing (degradation) of Bet v 1 by cathepsin S [3] | legumain activity in the presence of DTT and TCEP [4] | production of IL‐12p70 [5] | Bet v 1 cleavage site frequency with legumain [2, 7] | Bet v 1 cleavage site frequency with cathepsin S [3, 7] | diversity of peptides versus apo form of Bet v 1 [1, 6] [fold]
1 | C[C@H](CCC(=O)O)[C@H]1CC[C@H]2[C@@H]3CC[C@@H]4C[C@H](O)CC[C@]4(C)[C@H]3C[C@H](O)[C@]12C [DOC, sodium deoxycholate, reference compound] | preferentially accumulated the two N‐terminal cluster peptides | more efficient generation of the immunodominant T‐cell epitope | 69.7 | enhanced proteolytic stability | strongly retarded | strongly retarded | – | – | – | – | –
2 | CCC1C(=O)CC(O)C1/C=C/C(O)CCCCCCCC(=O)O (centres unmarked) [PPE1, E1 phytoprostanes] | preferentially accumulated the two N‐terminal cluster peptides | – | 53.9 | enhanced proteolytic stability | – | strongly retarded | no inhibitory effect | inhibits the production of IL‐12p70 | cleavage frequency after Asn120 and Asp157 strongly increased | preferential cleavage was observed after Phe20, Lys21, and in the C‐terminal region | –
3 | O=c1c(O[C@@H]2O[C@H](CO)[C@@H](O)[C@H](O)[C@H]2O[C@@H]2O[C@H](CO)[C@@H](O)[C@H](O)[C@H]2O)c(-c2ccc(O)c(O)c2)oc2cc(O)cc(O)c12 [Q3OS, quercetin 3‐O‐sophoroside] | – | more efficient generation of the immunodominant T‐cell epitope | – | only a weakly stabilizing effect over the first 12 hours | – | – | – | – | – | – | 2
